The results in this text go back to patent EP4631951A1, “SYNTHETIC VACCINES AGAINST POR[…]” (Max-Planck-Gesellschaft zur Förderung der Wissenschaften …, priority 2024, dated 2025).

One assay concerns human IgG antibodies. The assay is described as follows: Glycan microarray with human sera and saliva, IgG. As to conditions: for IgG antibody binding: human saliva and human serum (blood); for IgG binding in CP saliva compared with healthy (and recovered) patients / IgG antibody binding in saliva, compared between glycans: human saliva; for IgG antibody binding in saliva, compared between glycans: MFI, Figures 12 and 13. Type of assay: binding. The text has this: (§1) Here, human sera and saliva from P. gingivalis infected patients were used to screen antibodies against the synthetic glycan library 1-11 to determine whether LPS fragments are potential leads for vaccine development.
(§2) Samples were taken from a pool of patients at the Charit6 Zahnklinik (provided by Prof. Dr. Henrik Dommisch). The dental status of three groups of patients was defined as: healthy (20 patients, no clinical indications for CP), infected (16 patients, CP stage III or stage IV) and recovered from CP (six patients). Recovered patients were treated from CP stage III or stage IV at the Charit6 Zahnklinik by resective and regenerative surgery and execution of two to four professional dental cleanings per year.
(§3) The synthesized LPS fragments of P. gingivalis were immobilized at NHS-activated carboxyl-functionalized glass slides in triplicates (Figure 10 A, B). Additionally, a positive glycan control containing the α(1→2)-trirhamnose (5.06) was used in the assay, because most humans develop antibodies against this pathogen-associated glycan

In the next assay the test system is human IgA antibodies. As to the kind of experiment: Glycan microarray with human sera and saliva, IgA. Type of assay: binding. As to conditions: human saliva and serum.
Source text: as §1, §2, §3

Another assay concerns C57BL/6NRj mice. As to the kind of experiment: Glycan microarray analysis of antibody binding in sera of immunized mice. Type of assay: in vivo. From the text:
The immunizations were approved by Landesamt für Gesundheit und Soziales Berlin, Germany (Approval ID: G 0329/18). 8 weeks old C57BL/6NRj mice (Janvier, Le Genest-Saint_Isle, France) were housed at Bundesinstitut für Risikobewertung, Berlin, Germany in groups of five animals in individually ventilated cages (Tecniplast, Hohenpeißenberg, Germany) under specific pathogen-free conditions. Housing and experiments were in accordance with institutional guidelines and with the regulations of the Federation of European Laboratory Animal Science Associations (FELASA). Mice were immunized subcutaneously (s.c.) with 1µg of glycoconjugate per injection. The glycoconjugates, together with Alum adjuvant, were diluted in sterile PBS to a final volume of 100 µL per dose. The animals were immunized on day 0 (primary immunization) and boosted on days 14, 28, and final boosting on day 196. Blood (max. 80µL) and saliva were collected every two weeks. The mice were fixed with on hand and a swap was used to collect the saliva and was afterwards centrifuged at 400 g for 5 min. After coagulation at room temperature, serum was separated by centrifugation at 2,000 g for 10 min. The sera and saliva were frozen at -20°C until further usage. [drawing 126]
Synthetic polysaccharides containing an amine linker as well as protein controls were immobilized on glass microarray slides. The slides were then quenched, blocked with 1% BSA-PBS, and stored at 4°C until use. […]
Slides were incubated for 1 hour at 37 °C in a humidification chamber, washed three times with PBST, rinsed with deionized water, and dried by centrifugation. Fluorescence signals were measured with a Genepix 4300A device (Molecular Devices, Sunnyvale, CA, USA).
The photomultiplier tube (PMT) voltage was adjusted to avoid oversaturation of the signals. Data were analyzed using GenePix Pro 7 software (Molecular Devices, Sunnyvale, CA, USA). […]

Molecules are shown by their SMILES. Entries after “also recorded” stand apart in the source; their conditions may differ.

As for `C[C@@H]1O[C@@H](O[C@H]2[C@H](O[C@H]3[C@H](OCCCCCN)O[C@@H](C)[C@H](O)[C@H]3O)O[C@@H](C)[C@H](O)[C@H]2O)[C@H](O)[C@H](O)[C@H]1O` [5.06, 5-Aminopentyl-a-(1→2)-L-trirhamnopyranoside, reference compound], the “IgG antibodies in saliva” value with human IgG antibodies (healthy individuals compared with CP and recovered CP patients) is “also observed in healthy individuals, but significantly less than in chronical periodontitis patients and recovered chronical periodontitis patients”. The IgG antibody binding result with human IgG antibodies is reported as “showed IgG antibody binding”. In addition, in the assay on human IgA antibodies, the IgA antibody binding entry was “significant binding of IgA”.

On to `CC(=O)N[C@H]1[C@H](OCCCCCN)O[C@H](CO)[C@H](O)[C@@H]1O[C@@H]1O[C@@H](C)[C@H](O[C@H]2O[C@H](CO[C@H]3O[C@H](CO)[C@H](O)[C@H](O)[C@H]3O)[C@@H](O)[C@H](O)[C@H]2O)[C@@H](O)[C@H]1O` [compound 1, 5-Aminopentyl-α-D-galactopyranosyl-(1→6)-α-D-glucopyranosyl-(1→4)-α-L-rhamnopyranosyl-(1→3)-2-acetamido-2-deoxy-B-D-galactopyranoside], for which the IgM-responses result in the assay on C57BL/6NRj mice (course of the experiment, response against the named glycan) is reported as “remained at low levels”. In addition, in the assay with human IgG antibodies, the “IgG binding in CP saliva compared with healthy (and recovered) patients” value is given as “significantly higher than in dental healthy patients” and the “IgG antibody binding in saliva, compared between glycans” value is “strongest IgG interaction observed in these studies; also recorded: highest amount of bound IgG antibodies in this study”. In addition, in the assay with human IgG antibodies (human serum), the “IgG in serum of patients infected with P. gingivalis” value is “binds”.

Regarding `CC(=O)N[C@H]1[C@H](O[C@H]2[C@@H](O)[C@@H](CO)O[C@H](OCCCCCN)[C@@H]2O)O[C@H](CO)[C@H](O)[C@@H]1O[C@@H]1O[C@@H](C)[C@H](O)[C@@H](O)[C@H]1O` [compound 2, 5-Aminopentyl-α-L-rhamnopyranosyl-(1→3)-2-acetamido-2-deoxy-β-D-galactopyranosyl-(1→3)-α-D-galactopyranoside], the IgM levels entry with C57BL/6NRj mice (day 28, response against the named glycan) is recorded as “relatively high”. This compound yielded an IgM response peaked in the assay with C57BL/6NRj mice (response against the named glycan in mice immunized with its CRM197 conjugate (text names only the glycan)) of 14 days. Also, in the assay with human IgG antibodies, the “IgG binding in CP saliva compared with healthy (and recovered) patients” value is “stronger IgG binding observed for CP patients”; the IgG antibody binding entry is recorded as “show binding to IgG antibodies”; the “IgG antibody binding in saliva, compared between glycans” value is given as “higher amount of IgG antibody binding than to rhamnose monomer 9”.

For `CC(=O)N[C@H]1[C@H](O[C@H]2[C@@H](O)[C@@H](CO)O[C@H](OCCCCCN)[C@@H]2O)O[C@H](CO)[C@H](O)[C@@H]1O[C@@H]1O[C@@H](C)[C@H](O[C@H]2O[C@H](CO)[C@@H](O)[C@H](O)[C@H]2O)[C@@H](O)[C@H]1O` [compound 3, 5-Amino-pentyl α-D-glucopyranosyl-(1→4)-α-L-rhamnopyranosyl-(1→3)-2-acetamido-2-deoxy-β-D-galactopyranosyl-(1→3)-α-D-galactopyranoside], the IgG antibody binding entry in the assay with human IgG antibodies is given as “showed IgG antibody binding; also recorded: show binding to IgG antibodies”.

For the compound `CC(=O)N[C@H]1[C@H](O[C@H]2[C@@H](O)[C@@H](CO)O[C@H](OC[C@H]3O[C@H](O[C@@H]4[C@@H](O)[C@@H](O)[C@H](OCCCCCN)O[C@H]4C)[C@H](O)[C@@H](O)[C@@H]3O)[C@@H]2O)O[C@H](CO)[C@H](O)[C@@H]1O` [compound 4, 5-Aminopentyl-2-acetamido-2-deoxy-β-D-galactopyranosyl-(1→3)-α-D-galactopyranosyl-(1→6)-α-D-glucopyranosyl-(1→4)-α-L-rhamnopyranoside], in the assay on human IgG antibodies, the IgG antibody binding result is reported as “showed IgG antibody binding” and the “IgG antibody binding in saliva, compared between glycans” value was “higher IgG antibody binding than 5 tetrasaccharide”.

Consider `CC(=O)N[C@H]1[C@H](O[C@H]2[C@@H](O)[C@@H](CO)O[C@H](OC[C@H]3O[C@H](OCCCCCN)[C@H](O)[C@@H](O)[C@@H]3O)[C@@H]2O)O[C@H](CO)[C@H](O)[C@@H]1O[C@@H]1O[C@@H](C)[C@H](O)[C@@H](O)[C@H]1O` [compound 5, 5-Aminopentyl-α-L-rhamnopyranosyl-(1→3)-2-acetamido-2-deoxy-β-D-galactopyranosyl-(1→3)-α-D-galactopyranosyl-(1→6)-α-D-glucopyranoside], for which the IgG antibody binding result in the assay with human IgG antibodies is given as “showed IgG antibody binding; also recorded: show binding to IgG antibodies”.

As for `NCCCCCO[C@H]1O[C@H](CO[C@H]2O[C@H](CO)[C@H](O)[C@H](O)[C@H]2O)[C@@H](O)[C@H](O)[C@H]1O` [compound 7], in the assay with human IgG antibodies, the IgG antibody binding entry was “showed IgG antibody binding; also recorded: show binding to IgG antibodies” and the “IgG antibody binding in saliva, compared between glycans” value was “bind significantly less IgG”. The IgA antibody binding result in the assay with human IgA antibodies was “significant binding of IgA”.

As to `NCCCCCO[C@H]1O[C@H](CO)[C@H](O)[C@H](O)[C@H]1O` [compound 11, 5-Aminopentyl α-D-galactopyranoside], in the assay on human IgG antibodies, the IgG antibody binding entry is reported as “show binding to IgG antibodies” and the “IgG antibody binding in saliva, compared between glycans” value is reported as “bind significantly less IgG”.
